US20110263423A1, “Plant Health Composition” (BASF SE, priority 2008, published 2011)

System: Maize (Pioneer 34-N-45)
Experiment: Maize field trial, mixture with epoxiconazol, Colby synergism (Example 6)
Type: in vivo
Settings: 50 g a.i./ha of each compound
Experimental: Maize was grown in 2008 in a field trial at the BASF experimental station in Dinuba, 10181 Avenue 416, Calif., U.S.A. The variety Pioneer 34-N-45 was planted at a seeding rate of 35.000 plants/ha. The trial was setup as a randomized bloc design with 5 replications, each. Plot size was 43 m^2.
The maize plants were either untreted, treated with epoxiconazol (A3), with compound Ia, and with a mixture comprising compound Ia and epoxiconazol. Epoxiconazol was applied as the commercial formulation OPUS™ (125 g a.i./L, SC formulation) at a dose rate of 0.4 L/ha (50 g a.i./ha). Compound Ia was used as an EC formulation (62.5 g a.i./L) with a dose rate of 0.8 L per hectar (50 g a.i./ha). Epoxiconazol was applied together with compound Ia (as a mixture) using a co-formulation of both compounds (EC formulation, 62.5 g a.i./L each) with a product rate of 0.8 L/ha. The formulation was applied in a total spray volume of 300 L/ha. Compound Ia was sprayed at growth stage 51/55 (BBCH) with a tractor mounted spray boom with VS11003 spray nozzles at 3 bar spray pressure.
No disease symptoms were visible at the application time and no symptoms were detected at later stages.
At maturity the grain was harvested and the grain yield per plot, as an indicator of plant yield, was determined (kg/plot). Finally, the grain yield per hectare was calculated (dt/ha).
The efficacy was calculated as % increase of the grain yield (dt/ha) by each treatment compared to the untreated control.
The expected efficacies of the combinations of the active compounds were estimated using Colby's formula (Colby, S. R., Calculating synergistic and antagonistic responses of herbicide combinations, Weeds, 15, pp. 20-22, 1967) and compared with the observed efficacies.
E=x+y−x·y/100 Colby's formula: • E expected efficacy, expressed in % of the untreated control, when using the mixture of the active compounds A and B at the concentrations a and b • x efficacy, expressed in % of the untreated control, when using the active ingredient A at the concentration a • y efficacy, expressed in % of the untreated control, when using the active ingredient B at the concentration b

Fc1ccc([C@]2(Cn3cncn3)O[C@H]2c2ccccc2Cl)cc1 (racemic) [Epoxiconazol (A3), epoxiconazole, reference compound]
Observed efficacy (% increase of grain yield vs untreated control): 0.9% | Grain yield (BBCH 51/55): 155.8 dt/ha
